From publication PMC7892445 (Frontiers in Molecular Neuroscience, 2021)
Like-named read-outs stand apart in the source and are kept apart here.

How the values were obtained:
[1] = target: T1, Chicken α9α10 nAChR (Gallus gallus, UniProt Q9I8C7+Q9PTS8); assay: Two-electrode voltage clamp, recombinant heteromeric receptor in X. laevis oocytes; format: cell-based; details: for Emax: read-out: Efficacy (maximal response as % of that elicited by 1 mM ACh), Chicken α9α10
T1 construct: expressed in transfected cells; host or cells: Xenopus laevis oocytes (cRNA injection, 1:1 molar ratio)
Description: (§1) For expression studies, rat and chicken α9 and α10 nAChR subunits subcloned into a modified pGEMHE vector were used. Capped cRNAs were in vitro transcribed from linearized plasmid DNA templates using RiboMAX™ Large Scale RNA Production System (Promega, Madison, WI, USA). The maintenance of X. laevis and the preparation and cRNA injection of stage V and VI oocytes have been described in detail elsewhere (Verbitsky et al., [2000]). Typically, oocytes were injected with 50 nl of RNase-free water containing 0.01–1.0 ng of cRNA (at a 1:1 molar ratio for heteromeric receptors) and maintained in Barth’s solution [in mM: NaCl 88, Ca(NO3)2 0.33, CaCl2 0.41, KCl 1, MgSO4 0.82, NaHCO3 2.4, HEPES 10] at 18°C. Electrophysiological recordings were performed 2–6 days after cRNA injection under a two-electrode voltage clamp with an Oocyte Clamp OC-725B or C amplifier (Warner Instruments Corporation, Hamden, CT, USA). Recordings were filtered at a corner frequency of 10 Hz using a 900 BT Tunable Active Filter (Frequency Devices Inc., Ottawa, IL, USA). Data acquisition was performed using a Patch Panel PP-50 LAB/1 interphase (Warner Instruments Corp., Hamden, CT, USA) at a rate of 10 points per second. Both voltage and current electrodes were filled with 3 M KCl and had resistances of ~1 MΩ. Data were analyzed using Clampfit from the pClamp 6.1 software. During electrophysiological recordings, oocytes were continuously superfused (~15 ml/min) with normal frog saline composed of: 115 mM NaCl, 2.5 mM KCl, 1.8 mM CaCl2, and 10 mM HEPES buffer, pH 7.2. Drugs were added to the perfusion solution for the application. The membrane potential was clamped to −70 mV. To minimize activation of the endogenous Ca^2+ sensitive chloride current (Elgoyhen et al., [2001]), all experiments were performed in oocytes incubated with the Ca^2+ chelator 1,2-bis (2-aminophenoxy) ethane-N,N,N’,N’-tetraacetic acid-acetoxymethyl ester (BAPTA-AM, 100 μM) for 3 h before electrophysiological recordings. […] The mean and SEM of peak current responses are presented. Agonist concentration-response curves were iteratively fitted, using Prism 6 software (GraphPad Software Inc., La Jolla, CA, USA), with the equation: I/Imax = A^nh/(A^nH + EC50^nH), where I is the peak inward current evoked by agonist at concentration A; Imax is the current evoked by the concentration of agonist eliciting a maximal response; EC50 is the concentration of agonist inducing half-maximal current response, and nH is the Hill coefficient. An equation of the same form was used to analyze the concentration dependence of antagonist induced blockage.

[2] = target: rat α9–chicken α10 hybrid receptor (Rα9-Cα10) (UniProt P43144+Q9I8C7); assay: Two-electrode voltage clamp, hybrid receptor in X. laevis oocytes; format: cell-based; details: mean ± SEM
Description: as §1

[3] = target: T2, rat α9α10x chimeric receptor (Rattus norvegicus, UniProt P43144+Q9JLB5, A264D/A292P/A308T/A312F/A328P/E329N/F253L/F325Y/H335A/I246L/I275V/I289S/I304M/I310V/I323L/L250F/L309M/M279L/M319L/N295S/R331H/S258A/S293A/V320I/Y260H); assay: Two-electrode voltage clamp, chimeric receptor in X. laevis oocytes; format: cell-based
T2 construct: expressed in transfected cells; host or cells: Xenopus laevis oocytes (cRNA injection)
Description: as §1
The α10W55T mutant subunit was produced as previously described (Boffi et al., [2017]) using Quick change XL II kit (Stratagene, La Jolla, CA, USA). […]

[4] = target: T3, Rat α9 homomeric nAChR (Rattus norvegicus, UniProt P43144); assay: Two-electrode voltage clamp, recombinant homomeric receptor in X. laevis oocytes; format: cell-based
T3 construct: expressed in transfected cells; host or cells: Xenopus laevis oocytes (cRNA injection)
Description: as §1

[5] = target: Chicken α10 homomeric nAChR (Gallus gallus, UniProt Q9I8C7); assay: as above; format: cell-based; details: for EC50: mean ± SEM
Description: as §1

[6] = target: Chicken α9 homomeric nAChR (Gallus gallus, UniProt Q9PTS8); assay: as above; format: cell-based; details: for EC50: mean ± SEM
Description: as §1

[7] = target: T1, Chicken α9α10 nAChR; set-up: method as in Elgoyhen et al., 2001; Lipovsek et al., 2012; details: previous work, ref Elgoyhen et al., 2001, Lipovsek et al., 2012; cited from earlier work
[8] = target: T4, Rat α9α10 nAChR (Rattus norvegicus, UniProt P43144+Q9JLB5); assay: Two-electrode voltage clamp, recombinant heteromeric receptor in X. laevis oocytes; format: cell-based; details: for Efficacy (maximal response as % of that elicited by 1 mM ACh) / EC50: Rat α9α10; for Efficacy (maximal response as % of that elicited by 1 mM ACh) / EC50 / Emax: mean ± SEM; for EC50: −70 mV, BAPTA-AM treated oocytes; for Emax: read-out: Efficacy (maximal response as % of that elicited by 1 mM ACh), Rat α9α10
T4 construct: expressed in transfected cells; host or cells: Xenopus laevis oocytes (cRNA injection, 1:1 molar ratio)
Description: as §1

[9] = test system: chicken short hair cells; assay: tissue or blood; details: Gallus gallus, read-out: Efficacy (maximum response normalized to maximal peak response to 3 mM ACh)
Description: (§2) Chicken auditory organ (basilar papilla) was dissected from the temporal bone of embryonic chickens (white Leghorns either sex, 17–20 days in ovo). The tegmentum vasculosum was removed and the tectorial membrane was stripped from the basilar papilla with most of the short hair cells (SHCs) still attached. This “tectorial preparation” was then inverted and secured in the recording chamber by spring clips. SHCs were recorded in a region 25–50% the distance from the apical (lagenar) to the basal tip of the basilar papilla of the chicken. Apical turns of the organ of Corti were excised from BALB/c mice of either sex between postnatal day 11 (P11) and P13 (around the onset of hearing in altricial rodents). At this age, outer hair cells (OHCs) are already innervated by the MOC fibers (Pujol et al., [1998]; Simmons, [2002]). The tectorial membrane was removed and the organ of Corti was positioned under an insect pin affixed to a cover-slip with a drop of Sylgard.
(§3) Basilar papilla and cochlear preparations were placed into a chamber on the stage of an upright microscope (Olympus BX51WI, Center Valley, PA, USA) at room temperature and used within 2 h. Cells were visualized on a monitor via a water immersion objective (60× magnification), differential interference contrast optics, and a CCD camera (Andor iXon 885, Belfast, UK). […]

[10] = test system: mouse outer hair cells; assay: tissue or blood; details: read-out: Efficacy (maximum response normalized to maximal peak response to 3 mM ACh)
Description: as §2, §3

[11] = target: chicken α9–rat α10 hybrid receptor (Cα9-Rα10) (UniProt Q9JLB5+Q9PTS8); assay: Two-electrode voltage clamp, hybrid receptor in X. laevis oocytes; format: cell-based; details: mean ± SEM
Description: as §1

[12] = target: rat α9α10W55T receptor (Rα9-Rα10W55T) (Rattus norvegicus, UniProt P43144+Q9JLB5, W81T); assay: Two-electrode voltage clamp, mutant receptor in X. laevis oocytes; format: cell-based; details: mean ± SEM
Description: For expression studies, rat and chicken α9 and α10 nAChR subunits subcloned into a modified pGEMHE vector were used. Capped cRNAs were in vitro transcribed from linearized plasmid DNA templates using RiboMAX™ Large Scale RNA Production System (Promega, Madison, WI, USA). The maintenance of X. laevis and the preparation and cRNA injection of stage V and VI oocytes have been described in detail elsewhere (Verbitsky et al., [2000]). Typically, oocytes were injected with 50 nl of RNase-free water containing 0.01–1.0 ng of cRNA (at a 1:1 molar ratio for heteromeric receptors) and maintained in Barth’s solution [in mM: NaCl 88, Ca(NO3)2 0.33, CaCl2 0.41, KCl 1, MgSO4 0.82, NaHCO3 2.4, HEPES 10] at 18°C. Electrophysiological recordings were performed 2–6 days after cRNA injection under a two-electrode voltage clamp with an Oocyte Clamp OC-725B or C amplifier (Warner Instruments Corporation, Hamden, CT, USA). Recordings were filtered at a corner frequency of 10 Hz using a 900 BT Tunable Active Filter (Frequency Devices Inc., Ottawa, IL, USA). Data acquisition was performed using a Patch Panel PP-50 LAB/1 interphase (Warner Instruments Corp., Hamden, CT, USA) at a rate of 10 points per second. Both voltage and current electrodes were filled with 3 M KCl and had resistances of ~1 MΩ. Data were analyzed using Clampfit from the pClamp 6.1 software. […]

[13] = Chicken α9α10, mean ± SEM, read-out: EC50
[14] = α9α10x chimeric receptor, mean ± SEM

T4 sequence (P43144 26-479): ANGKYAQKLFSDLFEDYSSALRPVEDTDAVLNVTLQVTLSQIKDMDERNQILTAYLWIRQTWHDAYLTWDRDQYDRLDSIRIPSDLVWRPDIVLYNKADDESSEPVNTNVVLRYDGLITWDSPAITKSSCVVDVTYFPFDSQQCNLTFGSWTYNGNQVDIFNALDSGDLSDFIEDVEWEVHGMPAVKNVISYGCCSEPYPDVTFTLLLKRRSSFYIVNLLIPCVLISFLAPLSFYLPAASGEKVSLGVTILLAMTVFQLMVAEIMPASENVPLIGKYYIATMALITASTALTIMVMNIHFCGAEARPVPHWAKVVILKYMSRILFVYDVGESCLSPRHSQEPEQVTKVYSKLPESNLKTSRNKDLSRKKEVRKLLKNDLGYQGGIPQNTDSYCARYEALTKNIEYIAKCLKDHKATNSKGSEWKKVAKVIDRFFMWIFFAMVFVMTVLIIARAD
T4 sequence (Q9JLB5 25-447): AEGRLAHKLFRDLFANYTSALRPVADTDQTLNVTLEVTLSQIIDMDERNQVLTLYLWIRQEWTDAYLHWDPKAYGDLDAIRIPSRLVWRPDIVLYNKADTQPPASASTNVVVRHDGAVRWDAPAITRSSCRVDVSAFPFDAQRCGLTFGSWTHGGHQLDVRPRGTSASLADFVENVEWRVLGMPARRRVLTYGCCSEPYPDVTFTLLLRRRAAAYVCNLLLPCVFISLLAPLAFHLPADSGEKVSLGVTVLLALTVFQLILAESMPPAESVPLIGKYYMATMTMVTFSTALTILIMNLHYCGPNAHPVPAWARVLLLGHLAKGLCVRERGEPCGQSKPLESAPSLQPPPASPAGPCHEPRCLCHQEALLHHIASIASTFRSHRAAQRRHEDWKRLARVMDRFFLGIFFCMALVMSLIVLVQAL
Chain of rat α9–chicken α10 hybrid receptor (Rα9-Cα10) (P43144 26-479): as the sequence (P43144 26-479) above
Chain of rat α9–chicken α10 hybrid receptor (Rα9-Cα10) (Q9I8C7 27-452): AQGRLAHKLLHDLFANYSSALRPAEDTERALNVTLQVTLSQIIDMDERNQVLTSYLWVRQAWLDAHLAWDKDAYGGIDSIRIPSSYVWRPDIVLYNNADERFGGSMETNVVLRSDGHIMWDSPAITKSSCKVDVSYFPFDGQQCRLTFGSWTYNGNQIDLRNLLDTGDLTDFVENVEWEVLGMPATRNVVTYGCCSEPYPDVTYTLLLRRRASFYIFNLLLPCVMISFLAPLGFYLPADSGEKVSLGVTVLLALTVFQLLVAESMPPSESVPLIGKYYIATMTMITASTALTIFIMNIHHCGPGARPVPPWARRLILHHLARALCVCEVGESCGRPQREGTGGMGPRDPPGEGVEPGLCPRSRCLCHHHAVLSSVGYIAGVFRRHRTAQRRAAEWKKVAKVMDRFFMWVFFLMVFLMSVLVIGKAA
T2 sequence (P43144 26-479, stated change not applied): as the sequence (P43144 26-479) above
T2 sequence (P43144+Q9JLB5 fused with the stated changes): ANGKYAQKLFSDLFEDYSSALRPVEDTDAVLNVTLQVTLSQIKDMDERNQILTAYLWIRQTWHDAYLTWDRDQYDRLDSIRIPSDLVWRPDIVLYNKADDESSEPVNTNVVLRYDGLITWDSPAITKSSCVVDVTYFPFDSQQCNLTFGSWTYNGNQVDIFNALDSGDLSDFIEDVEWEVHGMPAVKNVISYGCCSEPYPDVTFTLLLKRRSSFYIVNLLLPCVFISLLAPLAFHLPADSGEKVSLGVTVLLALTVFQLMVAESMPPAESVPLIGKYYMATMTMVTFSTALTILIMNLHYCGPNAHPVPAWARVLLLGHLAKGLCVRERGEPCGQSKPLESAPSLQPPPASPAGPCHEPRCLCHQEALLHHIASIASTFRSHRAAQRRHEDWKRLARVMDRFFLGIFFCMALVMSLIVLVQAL
T3 sequence (P43144 26-479): as the sequence (P43144 26-479) above
Chain of Chicken α10 homomeric nAChR (Q9I8C7 27-452): as the sequence (Q9I8C7 27-452) above
Chain of Chicken α9 homomeric nAChR (Q9PTS8 28-484): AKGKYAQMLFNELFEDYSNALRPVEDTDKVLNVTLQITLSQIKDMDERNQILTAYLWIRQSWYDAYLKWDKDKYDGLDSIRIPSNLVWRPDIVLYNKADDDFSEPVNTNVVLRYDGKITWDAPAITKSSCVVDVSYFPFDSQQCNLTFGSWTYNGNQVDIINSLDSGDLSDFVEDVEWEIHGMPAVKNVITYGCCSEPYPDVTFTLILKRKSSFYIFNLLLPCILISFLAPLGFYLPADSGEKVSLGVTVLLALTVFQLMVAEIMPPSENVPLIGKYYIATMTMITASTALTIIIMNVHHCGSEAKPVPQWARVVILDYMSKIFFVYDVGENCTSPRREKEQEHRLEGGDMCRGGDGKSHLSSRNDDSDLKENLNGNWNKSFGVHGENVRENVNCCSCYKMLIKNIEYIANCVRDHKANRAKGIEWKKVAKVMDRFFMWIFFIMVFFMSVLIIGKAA
Chain of chicken α9–rat α10 hybrid receptor (Cα9-Rα10) (Q9PTS8 28-484): as above
Chain of chicken α9–rat α10 hybrid receptor (Cα9-Rα10) (Q9JLB5 25-447): as the sequence (Q9JLB5 25-447) above
T1 sequence (Q9PTS8 28-484): as the sequence (Q9PTS8 28-484) above
T1 sequence (Q9I8C7 27-452): as the sequence (Q9I8C7 27-452) above
Chain of rat α9α10W55T receptor (Rα9-Rα10W55T) (P43144 26-479): as the sequence (P43144 26-479) above
Chain of rat α9α10W55T receptor (Rα9-Rα10W55T) (Q9JLB5 25-447 W81T): as the sequence (Q9JLB5 25-447) above, with W57T counted along it

CC(=O)OCC[N+](C)(C)C [ACh, acetylcholine]
EC50 [1]: 13.1 ± 2.6 µM | EC50 ([2]; Rα9-Cα10 hybrid): 11.6 ± 2.9 µM | Imax (maximal ACh response) ([3]; rat α9 co-expressed with α10x): 269 ± 103 nA | Imax (maximal ACh response) ([4]; homomeric rat α9): 14 ± 2 nA | EC50 [5]: 2.2 ± 0.7 µM | EC50 [6]: 12.9 ± 1.4 µM | EC50 [7]: ~10 µM

C[N+](C)(C)CCOC(N)=O [Carbachol, carbachol]
Efficacy (maximal response as % of that elicited by 1 mM ACh) ([1]; Chicken α9α10, mean ± SEM): 89.8 ± 7.0 (6) % | EC50 [1, 13]: 150 ± 15 µM | Potency relative to ACh (times lower) ([1]; chicken α9α10, carbachol EC50 vs ACh): ~12 times | Emax ([1]; mean ± SEM): 89 ± 7% | Efficacy (maximal response as % of that elicited by 1 mM ACh) [8]: 75.5 ± 5.2 (5) % | EC50 [8]: 159 ± 31.5 µM | Potency relative to ACh (times lower) ([8]; rat α9α10, carbachol EC50 vs ACh): ~12 times | Emax [8]: 75 ± 5%

C[N+](C)(C)CCO [Choline, choline]
EC50 [1, 13]: 200 ± 16 µM | Emax ([1]; mean ± SEM): 88 ± 6.7% | Efficacy (maximal response as % of that elicited by 1 mM ACh) [8]: 37.5 ± 2.5 (9) % | Efficacy (maximal response as % of that elicited by 1 mM ACh) ([8]; listed as choline): 38 ± 3% | EC50 [8]: 541 ± 62 µM | Emax [8]: 37 ± 3% | Emax [9]: 90 ± 6% | Emax [10]: 50 ± 9% | EC50 ([11]; Cα9-Rα10 hybrid): 333 ± 66.2 µM | Efficacy (maximal response as % of maximal ACh response) ([11]; Cα9-Rα10 hybrid): 51.2 ± 6 (5) % | Emax ([11]; read-out: Efficacy (maximal response as % of maximal ACh response), Cα9-Rα10 hybrid): 51 ± 6% | EC50 ([2]; Rα9-Cα10 hybrid): 148 ± 12.1 µM | Efficacy (maximal response as % of responses to 1 mM ACh) ([2]; Rα9-Cα10 hybrid): 86.4 ± 2.1 (6) % | Emax ([2]; read-out: Efficacy (maximal response as % of responses to 1 mM ACh), Rα9-Cα10 hybrid): 86 ± 2% | Emax ([3]; read-out: Efficacy (maximal response as % of maximal ACh response), α9α10x chimeric receptor, mean ± SEM): 74 ± 1% | EC50 [3, 14]: 160 ± 7.6 µM | Efficacy (maximal response as % of maximal ACh response) [3, 14]: 74.3 ± 1.0 (5) % | Efficacy (responses to 10 mM choline as % of those elicited by 1 mM ACh) [12]: 7.4 ± 1.9 (5) % | Efficacy (responses to 10 mM choline as % of those elicited by 1 mM ACh) ([12]; listed as choline): 7 ± 2% | Efficacy (maximal response as % of that elicited by 1 mM ACh) ([4]; Rat α9, mean ± SEM): 87.3 ± 6.0 (4) % | EC50 ([4]; Rat α9, −70 mV, BAPTA-AM treated oocytes, mean ± SEM): 188 ± 40 µM | Emax ([4]; read-out: Efficacy (maximal response as % of that elicited by 1 mM ACh), Rat α9, mean ± SEM): 87 ± 6% | EC50 [5]: 23.2 ± 8.3 µM | Emax ([5]; read-out: Efficacy (maximal response as % of maximal ACh response), mean ± SEM): 99.4 ± 9.5% | EC50 [6]: 280 ± 20 µM | Emax ([6]; read-out: Efficacy (maximal response as % of that elicited by 1 mM ACh), mean ± SEM): 73.7 ± 5.9%

C[N+]1(C)CCN(c2ccccc2)CC1 [DMPP]
Efficacy (maximal response as % of that elicited by 1 mM ACh) ([1]; Chicken α9α10, mean ± SEM): 32.6 ± 2.9 (5) % | EC50 [1, 13]: 9.8 ± 0.5 µM | Efficacy (maximal response as % of that elicited by 1 mM ACh) [8]: 0.6 ± 0.3 (6) % | EC50 [8]: 21.5 ± 4 µM

CN1CCC[C@H]1c1cccnc1 [Nicotine, nicotine]
IC50 [1]: 39.4 ± 3.4 µM | Agonist activity (currents elicited) ([1]; oocytes expressing chicken α9α10): did not elicit currents | Agonist activity (currents elicited) ([8]; oocytes expressing rat α9α10): did not elicit currents
